Assay results: patent publication US20190367516A1 (Bayer Pharma Aktiengesellschaft, priority 2015, published 2019)
Like-named read-outs stand apart in the source and are kept apart here.

Assays:
[1] = molecular target: T1, human M2 receptor (Homo sapiens, UniProt P08172); details: for Emax: read-out: Efficiency, boosting of the acetylcholine effect at EC20 acetylcholine concentration
T1 sequence (P08172 1-466): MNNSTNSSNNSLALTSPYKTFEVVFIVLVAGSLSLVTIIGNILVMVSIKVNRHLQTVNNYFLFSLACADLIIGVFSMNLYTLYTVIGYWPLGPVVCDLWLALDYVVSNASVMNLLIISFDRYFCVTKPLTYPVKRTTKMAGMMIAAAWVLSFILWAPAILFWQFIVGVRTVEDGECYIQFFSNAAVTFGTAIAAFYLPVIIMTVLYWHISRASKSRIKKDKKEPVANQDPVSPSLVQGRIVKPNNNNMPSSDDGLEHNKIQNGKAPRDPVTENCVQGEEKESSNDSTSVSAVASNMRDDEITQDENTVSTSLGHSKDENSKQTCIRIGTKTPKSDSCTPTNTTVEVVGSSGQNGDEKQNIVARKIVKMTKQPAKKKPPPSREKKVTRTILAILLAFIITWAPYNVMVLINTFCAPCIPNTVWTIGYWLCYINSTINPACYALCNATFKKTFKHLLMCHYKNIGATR

[2] = molecular target: T1, human M2 receptor; assay type: cell-based; details: α >1 = positive cooperativity
[3] = Receptor activity EC50, M2-GIRK1/4 activation test, acetylcholine at EC20, allosteric potency, in some cases mean values from two or more determinations
[4] = shift in the acetylcholine dose-response curve (Allosteric EC50 shift, GraphPad PRISM)
[5] = Receptor activity EC50, allosteric potency at EC20 acetylcholine, M2-GIRK1/4 reporter cells, in some cases mean of two or more determinations
[6] = shift of acetylcholine dose-response curve (Allosteric EC50 shift)

Compound | EC50 [1, 3] [nM] | Cooperativity (alpha factor) [2, 4] | EC50 [1, 5] [nM] | Emax ([1]; M2-GIRK1/4 reporter cells) [%] | Cooperativity (alpha factor) [2, 6]
O=C(NC12CC3CC(CC(C3)C1)C2)c1cn(-c2ccc(F)cc2F)c2nc(N3CCOC3=O)ccc2c1=O [Example 128, 1-(2,4-Difluorophenyl)-4-oxo-7-(2-oxo-1,3-oxazolidin-3-yl)-N-(tricyclo[3.3.1.1^3,7]dec-1-yl)-1,4-dihydro-1,8-naphthyridine-3-carboxamide] | 57 | 18 |  |  | 
COC(=O)[C@@H]1CN(c2ccc3c(=O)c(C(=O)N[C@@H](C4CC4)C(F)(F)F)cn(-c4c(F)cc(F)cc4F)c3n2)C(=O)O1 [Example 666, Methyl (5S)-3-[6-{[(1S)-1-cyclopropyl-2,2,2-trifluoroethyl]carbamoyl}-5-oxo-8-(2,4,6-trifluorophenyl)-5,8-dihydro-1,8-naphthyridin-2-yl]-2-oxo-1,3-oxazolidine-5-carboxylate] |  |  | 22 | 100 | 60
O=C(NC12CC3CC(CC(C3)C1)C2)c1cn(-c2ccc(F)cc2F)c2nc(N3CCC3=O)ccc2c1=O [Example 168] | 60 | 13 |  |  | 
O=C(NC12CC(C(F)(F)F)(C1)C2)c1cn(-c2c(F)cc(F)cc2F)c2nc(N3C[C@@H](O)[C@H](O)C3)ccc2c1=O [Example 371, 7-[(3R,4R)-3,4-Dihydroxypyrrolidin-1-yl]-4-oxo-N-[3-(trifluoromethyl)bicyclo[1.1.1]pent-1-yl]-1-(2,4,6-trifluorophenyl)-1,4-dihydro-1,8-naphthyridine-3-carboxamide] | 18 | 36 |  |  | 
CC[C@@H](NC(=O)c1cn(-c2ccc(F)cc2F)c2nc(N3CC4CNC(=O)C4C3)ccc2c1=O)C(F)(F)F (single isomer, unassigned) [Example 223] | 84 | 30 |  |  | 
CC(COC(F)(F)F)NC(=O)c1cn(-c2ccc(F)cc2F)c2nc(N3CCCC3)ccc2c1=O (racemic) [Example 232, 1-(2,4-Difluorophenyl)-4-oxo-7-(pyrrolidin-1-yl)-N-[1-(trifluoromethoxy)propan-2-yl]-1,4-dihydro-1,8-naphthyridine-3-carboxamide] | 97 | 8 |  |  | 
C[C@H](NC(=O)c1cn(-c2c(F)cccc2F)c2nc(N3CC4CC4(O)C3)ccc2c1=O)C(F)(F)F (mixture of isomers) [Example 311, 1-(2,6-Difluorophenyl)-7-[1-hydroxy-3-azabicyclo[3.1.0]hex-3-yl]-4-oxo-N-[(2S)-1,1,1-trifluoropropan-2-yl]-1,4-dihydro-1,8-naphthyridine-3-carboxamide] | 25 | 20 |  |  | 
CC1(C)CN(c2ccc3c(=O)c(C(=O)N[C@@H](C4CC4)C(F)(F)F)cn(-c4c(F)cc(F)cc4F)c3n2)C(=O)N1 [Example 451, N-[(1 S)-1-Cyclopropyl-2,2,2-trifluoroethyl]-7-(4,4-dimethyl-2-oxoimidazolidin-1-yl)-4-oxo-1-(2,4,6-trifluorophenyl)-1,4-dihydro-1,8-naphthyridine-3-carboxamide] |  |  | 8 | 91 | 21
CN(C)c1ccc2c(=O)c(C(=O)NC(c3c(Cl)cccc3Cl)C(F)(F)F)cn(-c3ccc(F)cc3F)c2n1 (racemic) [Example 56, rac-N-[1-(2,6-Dichlorophenyl)-2,2,2-trifluoroethyl]-1-(2,4-difluorophenyl)-7-(dimethylamino)-4-oxo-1,4-dihydro-1,8-naphthyridine-3-carboxamide] | 56 | 15 |  |  | 
CCC(NC(=O)c1cn(-c2ccc(F)cc2F)c2nc(N(C)CCF)ccc2c1=O)C(F)(F)F (racemic) [Example 104, rac-1-(2,4-Difluorophenyl)-7-[(2-fluoroethyl)(methyl)amino]-4-oxo-N-[1,1,1-trifluorobutan-2-yl]-1,4-dihydro-1,8-naphthyridine-3-carboxamide] | 28 | 15 |  |  | 
CC[C@@H](NC(=O)c1cn(-c2ccc(F)cc2F)c2nc(N3CCC4(C3)CC4(F)F)ccc2c1=O)C(F)(F)F (mixture of isomers) [Example 29, 7-(1,1-Difluoro-5-azaspiro[2.4]hept-5-yl)-1-(2,4-difluorophenyl)-4-oxo-N-[(2R)-1,1,1-trifluorobutan-2-yl]-1,4-dihydro-1,8-naphthyridine-3-carboxamide (diastereomer mixture)] | 112 | 4 |  |  | 
O=C(NC(C1CC1)C(F)(F)F)c1cn(-c2ccccc2Cl)c2nc(N3C[C@@H](O)CC3=O)ccc2c1=O (mixture of isomers) [Example 279, 1-(2-Chlorophenyl)-N-[1-cyclopropyl-2,2,2-trifluoroethyl]-7-[(4S)-4-hydroxy-2-oxopyrrolidin-1-yl]-4-oxo-1,4-dihydro-1,8-naphthyridine-3-carboxamide] | 66 | 34 |  |  | 
O=C(NC(CC(F)(F)F)C1CC1)c1cn(-c2c(F)cc(F)cc2F)c2nc(N3C[C@@H](O)[C@H](O)C3)ccc2c1=O (single isomer, unassigned) [Example 439] |  |  | 20 | 100 | 35
CCC(NC(=O)c1cn(-c2ccc(F)cc2F)c2nc(N3CC[C@H](F)C3)ccc2c1=O)C(F)(F)F (stereo partly drawn) [Example 71, 1-(2,4-Difluorophenyl)-7-[(3S)-3-fluoropyrrolidin-1-yl]-4-oxo-N-[1,1,1-trifluorobutan-2-yl]-1,4-dihydro-1,8-naphthyridine-3-carboxamide] | 39 | 30 |  |  | 
CC[C@@H](NC(=O)c1cn(-c2ccc(F)cc2F)c2nc(N3CC(C)NC3=O)ccc2c1=O)C(F)(F)F (single isomer, unassigned) [Example 432] |  |  | 40 | 94 | 26
C[C@H](NC(=O)c1cn(-c2c(F)cc(F)cc2Cl)c2nc(N3CCC(C)(C)C3=O)ccc2c1=O)C(F)(F)F [Example 335, 1-(2-Chloro-4,6-difluorophenyl)-7-(3,3-dimethyl-2-oxopyrrolidin-1-yl)-4-oxo-N-[(2S)-1,1,1-trifluoropropan-2-yl]-1,4-dihydro-1,8-naphthyridine-3-carboxamide] | 23 | 7 |  |  | 
O=C(N[C@@H](C1CC1)C(F)(F)F)c1cn(-c2c(F)cc(F)cc2F)c2nc(N3CCCC[C@@H]3CO)ccc2c1=O [Example 462, N-[(1 S)-1-Cyclopropyl-2,2,2-trifluoroethyl]-7-[(2R)-2-(hydroxymethyl)piperidin-1-yl]-4-oxo-1-(2,4,6-trifluorophenyl)-1,4-dihydro-1,8-naphthyridine-3-carboxamide] |  |  | 18 | 88 | 17
CC[C@H](NC(=O)c1cn(-c2ccc(F)cc2F)c2nc(N3CCC(O)C3)ccc2c1=O)C(F)(F)F (single isomer, unassigned) [Example 219] | 106 | 33 |  |  | 
C[C@@H](O)CN(C)c1ccc2c(=O)c(C(=O)N[C@@H](C3CC3)C(F)(F)F)cn(-c3c(F)cc(F)cc3F)c2n1 [Example 494] |  |  | 28 | 78 | 20
CC[C@H](NC(=O)c1cn(-c2c(F)cc(F)cc2F)c2nc(N3CCN(C(=O)OC)CC3)ccc2c1=O)C(F)(F)F [Example 595, Methyl 4-[5-oxo-6-{[(2S)-1,1,1-trifluorobutan-2-yl]carbamoyl}-8-(2,4,6-trifluorophenyl)-5,8-dihydro-1,8-naphthyridin-2-yl]piperazine-1-carboxylate] |  |  | 19 | 94 | 36
O=C(NC12CC3CC(CC(C3)C1)C2)c1cn(-c2ccc(F)cc2F)c2nc(N3CC(F)CC3=O)ccc2c1=O (stereo not drawn) [Example 187, 1-(2,4-Difluorophenyl)-7-[4-fluoro-2-oxopyrrolidin-1-yl]-4-oxo-N-(tricyclo[3.3.1.1^3,7]dec-1-yl)-1,4-dihydro-1,8-naphthyridine-3-carboxamide] | 98 | 10 |  |  | 
C[C@@H]1CN(c2ccc3c(=O)c(C(=O)NC(C)(C)C(F)F)cn(-c4c(F)cc(F)cc4F)c3n2)C(=O)N1 [Example 452, N-(1,1-Difluoro-2-methylpropan-2-yl)-7-[(4R)-4-methyl-2-oxoimidazolidin-1-yl]-4-oxo-1-(2,4,6-trifluorophenyl)-1,4-dihydro-1,8-naphthyridine-3-carboxamide] |  |  | 13 | 100 | 25
COC(=O)N1CCN(c2ccc3c(=O)c(C(=O)Nc4c(Cl)cccc4Cl)cn(-c4ccc(F)cc4F)c3n2)CC1 [Example 164, Methyl 4-{6-[(2,6-dichlorophenyl)carbamoyl]-8-(2,4-difluorophenyl)-5-oxo-5,8-dihydro-1,8-naphthyridin-2-yl}piperazine-1-carboxylate] | 31 | 21 |  |  | 
